The source of these data is US20250051347A1, “BIFUNCTIONAL CHIMERIC HETEROCYCLIC COMPOUND AND USE THEREOF AS ANDROGEN RECEPTOR DEGRADER” (Hinova Pharmaceuticals, Inc., priority 2021, published 2025).

The target in the first assay is T1, androgen receptor (AR) splicing variant AR-v7 (Homo sapiens, UniProt P10275).
T1 construct: The degradation activity of compounds on AR-v7 in 22RV1 cells; host or cells: 22RV1 cells
T1 sequence (P10275 1-644 isoform P10275-3): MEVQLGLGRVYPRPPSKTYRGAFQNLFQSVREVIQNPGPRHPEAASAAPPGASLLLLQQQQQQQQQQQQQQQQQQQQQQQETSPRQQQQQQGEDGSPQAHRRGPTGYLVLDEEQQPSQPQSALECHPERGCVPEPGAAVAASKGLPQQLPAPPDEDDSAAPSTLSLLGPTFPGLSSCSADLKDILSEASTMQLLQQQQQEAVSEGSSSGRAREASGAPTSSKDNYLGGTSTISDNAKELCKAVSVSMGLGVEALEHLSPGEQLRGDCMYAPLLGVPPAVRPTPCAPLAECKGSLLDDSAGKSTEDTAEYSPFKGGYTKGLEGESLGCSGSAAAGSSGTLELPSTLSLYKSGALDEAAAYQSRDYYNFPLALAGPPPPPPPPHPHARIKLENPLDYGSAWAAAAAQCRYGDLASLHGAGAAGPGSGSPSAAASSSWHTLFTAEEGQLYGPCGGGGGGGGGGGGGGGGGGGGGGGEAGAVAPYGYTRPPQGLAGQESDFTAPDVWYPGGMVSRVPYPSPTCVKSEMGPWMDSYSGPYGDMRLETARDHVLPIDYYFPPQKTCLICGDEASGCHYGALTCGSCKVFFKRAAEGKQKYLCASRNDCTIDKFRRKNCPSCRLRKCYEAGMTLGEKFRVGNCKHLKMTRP
As to the kind of experiment: Degradation activity on androgen receptor splicing variant AR-v7 in 22RV1 cells (ELISA). In kind it is cell-based. Conditions: AR-v7 degradation in 22RV1 cells, 48 h, class symbols. The method, then:
The degradation activity of the compound of the present invention on the androgen receptor splicing variant AR-V7 was analyzed using enzyme-linked immunosorbent assay (ELISA).
The plate was cultured in a 5% CO2 cell incubator at 37° C. for 2 days until the cells adhered to the wall. • 2) The drug was prepared into 10 mM stock solution with dimethylsulfoxide (DMSO). […] The plate was gently shaken and mixed. In addition, negative control wells (only containing culture medium) and positive control wells (only containing cells and DMSO) were set. • 3) After the cells were cultured in an incubator for 48 h, the medium was removed and the cells were rinsed once with ice cold PBS. Then, ice-cold 1× cell lysis buffer was added to each well of the cell culture plate. After the plate was incubated on ice for 15 min, the plate was tapped to mix. • 4) The supernatant of the cell lysate was transferred from the cell culture plate to a […] plate for ELISA. • 5) The newly prepared Capture antibody (green) was mixed with the newly prepared HRP-labeled antibody (red), and then the antibody mixture was added to the above 96-well ELISA plate. • 6) The ELISA plate was sealed with plastic film, and then incubated in a 25° C. incubator for 1 h. • 7) The washing buffer was added to each well, and then TMB substrate was added to each well of the ELISA plate. Subsequently, the plate was cultured in an incubator at 37° C. for 5 min. • 8) 100 μl of stop solution was added to each well of the ELISA plate, and the plate was gently tapped for several seconds. The absorbance was read at 450 nm within 30 min. The data were analyzed by the Dose-response equation in the software GraphPad Prism8, to obtain DC50 and Dmax values.
With “5-(((1s,3s)-3-(4-(2-(4-((2-(2H-1,2,3-triazol-2-yl)pyrimidin-5-yl)oxy)phenyl)propan-2-yl)phenoxy)cyclobutyl)amino)-2-(2,6-dioxopiperidin-3-yl)isoindolin-1,3-dione [Example 482]”, the half-maximal degradation concentration (DC50) was in the range of 0.011 to 0.1 µM.

The molecule `CC(C)(c1ccc(OCc2ccnc(N3CC4(COC4)C3)n2)cc1)c1ccc(OC2CCC[C@@H](Nc3ccc4c(c3)C(=O)N(C3CCC(=O)NC3=O)C4=O)C2)cc1` (stereo in doubt) [Example 493, 5-((3-(4-(2-(4-((2-(2-oxa-6-azaspiro[3.3]heptan-6-yl)pyrimidin-4-yl)methoxy)phenyl)propan-2-yl)phenoxy)cyclohexyl)amino)-2-(2,6-dioxopiperidin-3-yl)isoindolin-1,3-dione] had a 50% degradation concentration (DC50) of 0.101 to 1 µM.

In the case of `CC(C)(c1ccc(OCCCCCCCCOCCN2CCN(c3ccc4c(c3)C(=O)N(C3CCC(=O)NC3=O)C4=O)CC2)cc1)c1ccc(OCc2ccnc(NS(C)(=O)=O)n2)cc1` (stereo not drawn) [Example 1, N-(4-((4-(2-(4-((8-(2-(4-(2-(2,6-dioxopiperidin-3-yl)-1,3-dioxoisoindolin-5-yl)piperazin-1-yl)ethoxy)octyl)oxy)phenyl)propan-2-yl)phenoxy)methyl)pyrimidin-2-yl)methanesulfonamide], the DC50 lay in the range of 0.101 to 1 µM.

The molecule `CC(C)(c1ccc(OCCCCCCCOCCN2CCN(c3ccc4c(c3)C(=O)N(C3CCC(=O)NC3=O)C4=O)CC2)cc1)c1ccc(OCc2ccnc(NS(C)(=O)=O)n2)cc1` (stereo not drawn) [Example 2, N-(4-((4-(2-(4-((7-(2-(4-(2-(2,6-dioxopiperidin-3-yl)-1,3-dioxoisoindolin-5-yl)piperazin-1-yl)ethoxy)heptyl)oxy)phenyl)propan-2-yl)phenoxy)methyl)pyrimidin-2-yl)methanesulfonamide] registered a DC50 of 0.101 to 1 µM.

In the case of `CC(C)(c1ccc(OCCCCCOc2ccc3c(c2)C(=O)N(C2CCC(=O)NC2=O)C3=O)cc1)c1ccc(OCc2ccnc(NS(C)(=O)=O)n2)cc1` (stereo not drawn) [Example 9, N-(4-((4-(2-(4-((5-((2-(2,6-dioxopiperidin-3-yl)-1,3-dioxoisoindolin-5-yl)oxy)pentyl)oxy)phenyl)propan-2-yl)phenoxy)methyl)pyrimidin-2-yl)methanesulfonamide], the DC50 was 1 to 5 µM.

Molecule `CC(C)(c1ccc(OCCCCNc2cccc3c2C(=O)N(C2CCC(=O)NC2=O)C3=O)cc1)c1ccc(OCc2ccnc(NS(C)(=O)=O)n2)cc1` (stereo not drawn) [Example 10, N-(4-((4-(2-(4-(4-((2-(2,6-dioxopiperidin-3-yl)-1,3-dioxoisoindolin-yl)amino)butoxy)phenyl)propan-2-yl)phenoxy)methyl)pyrimidin-2-yl)methanesulfonamide] showed a half-maximal degradation concentration (DC50) of 1 to 5 µM.

Molecule `CC(C)(c1ccc(OCCCN2CCN(CC3CCN(CC4CN(c5ccc6c(c5)C(=O)N(C5CCC(=O)NC5=O)C6=O)C4)CC3)CC2)cc1)c1ccc(OCc2ccnc(NS(C)(=O)=O)n2)cc1` (stereo not drawn) [Example 11, N-(4-((4-(2-(4-(3-(4-((1-((1-(2-(2,6-dioxopiperidin-3-yl)-1,3-dioxoisoindolin-5-yl)azetidin-3-yl)methyl)piperidin-4-yl)methyl)piperazin-1-yl)propoxy)phenyl)propan-2-yl)phenoxy)methyl)pyrimidin-2-yl)methanesulfonamide] showed a DC50 of 1 to 5 µM.

In the case of `CC(C)(c1ccc(OCc2ccnc(NS(C)(=O)=O)n2)cc1)c1ccc(OC2CCN(CC3CCN(CC4CCN(CC5CN(c6ccc7c(c6)C(=O)N(C6CCC(=O)NC6=O)C7=O)C5)CC4)CC3)CC2)cc1` (stereo not drawn) [Example 12], the DC50 is 1 to 5 µM.

Molecule `CC(C)(c1ccc(OCCCOCCCNc2cccc3c2C(=O)N(C2CCC(=O)NC2=O)C3=O)cc1)c1ccc(OCc2ccnc(NS(C)(=O)=O)n2)cc1` (stereo not drawn) [Example 17] yielded a DC50 of 1 to 5 µM.

Staying with this assay, now noted: AR-v7 degradation in 22RV1 cells, 48 h, numeric values.
For the molecule `CC(C)(c1ccc(OCCCCOCCCCN2CCC3(CC2)CN(c2ccc4c(c2)C(=O)N(C2CCC(=O)NC2=O)C4=O)C3)cc1)c1ccc(OCc2ccnc(NS(C)(=O)=O)n2)cc1` (stereo not drawn) [Example 3], the DC50 is more than 10 µM.

The molecule `CC(C)(c1ccc(OCCCOCCCN2CCC3(CC2)CN(c2ccc4c(c2)C(=O)N(C2CCC(=O)NC2=O)C4=O)C3)cc1)c1ccc(OCc2ccnc(NS(C)(=O)=O)n2)cc1` (stereo not drawn) [Example 4] yielded a DC50 of more than 10 µM.

In the case of `CC(C)(c1ccc(OCCCCCCCCCN2CCN(C3CN(c4ccc5c(c4)C(=O)N(C4CCC(=O)NC4=O)C5=O)C3)CC2)cc1)c1ccc(OCc2ccnc(NS(C)(=O)=O)n2)cc1` (stereo not drawn) [Example 5, N-(4-((4-(2-(4-((9-(4-(1-(2-(2,6-dioxopiperidin-3-yl)-1,3-dioxoisoindolin-5-yl)azetidin-3-yl)piperazin-1-yl)nonyl)oxy)phenyl)propan-2-yl)phenoxy)methyl)pyrimidin-2-yl)methanesulfonamide], the DC50 is more than 10 µM.

`CC(C)(c1ccc(OCCCCCCN2CCC(CN3CCN(c4ccc5c(c4)C(=O)N(C4CCC(=O)NC4=O)C5=O)CC3)CC2)cc1)c1ccc(OCc2ccnc(NS(C)(=O)=O)n2)cc1` (stereo not drawn) [Example 6] came in with a half-maximal degradation concentration (DC50) of 6.33 µM.

On to `CC(C)(c1ccc(OCCCCCCCOCCCN2CCN(c3ccc4c(c3)C(=O)N(C3CCC(=O)NC3=O)C4=O)CC2)cc1)c1ccc(OCc2ccnc(NS(C)(=O)=O)n2)cc1` (stereo not drawn) [Example 7, N-(4-((4-(2-(4-((7-(3-(4-(2-(2,6-dioxopiperidin-3-yl)-1,3-dioxoisoindolin-5-yl)piperazin-1-yl)propoxy)heptyl)oxy)phenyl)propan-2-yl)phenoxy)methyl)pyrimidin-2-yl)methanesulfonamide], for which the DC50 was more than 10 µM.

Regarding `CC(C)(c1ccc(OCCCCCCOCCCCN2CCN(c3ccc4c(c3)C(=O)N(C3CCC(=O)NC3=O)C4=O)CC2)cc1)c1ccc(OCc2ccnc(NS(C)(=O)=O)n2)cc1` (stereo not drawn) [Example 8, N-(4-((4-(2-(4-((6-(4-(4-(2-(2,6-dioxopiperidin-3-yl)-1,3-dioxoisoindolin-5-yl)piperazin-1-yl)butoxy)hexyl)oxy)phenyl)propan-2-yl)phenoxy)methyl)pyrimidin-2-yl)methanesulfonamide], half-maximal degradation (DC50) was put at 5.27 µM.

On to `CC(C)(c1ccc(OCc2ccnc(NS(C)(=O)=O)n2)cc1)c1ccc(OCC2CCN(CCCCOCCCCNc3ccc4c(c3)C(=O)N(C3CCC(=O)NC3=O)C4=O)C2)cc1` (stereo not drawn) [Example 13, N-(4-((4-(2-(4-((1-(4-(4-(4-)((2-(2,6-dioxopiperidin-3-yl)-1,3-dioxoisoindolin-5-yl)amino)butoxy)butyl)pyrrolidin-3-yl)methoxy)phenyl)propan-2-yl)phenoxy)methyl)pyrimidin-2-yl)methanesulfonamide], for which the DC50 is 6.97 µM.

The molecule `CC(C)(c1ccc(OCc2ccnc(NS(C)(=O)=O)n2)cc1)c1ccc(OC2CN(CCCCCOCCCCNc3ccc4c(c3)C(=O)N(C3CCC(=O)NC3=O)C4=O)C2)cc1` (stereo not drawn) [Example 14] showed a half-maximal degradation concentration (DC50) of more than 10 µM.

For `CC(C)(c1ccc(OCc2ccnc(NS(C)(=O)=O)n2)cc1)c1ccc(OC2CCN(CCCCCOCCCCNc3ccc4c(c3)C(=O)N(C3CCC(=O)NC3=O)C4=O)CC2)cc1` (stereo not drawn) [Example 15], the DC50 is more than 10 µM.

In turn, `CC(C)(c1ccc(OCc2ccnc(NS(C)(=O)=O)n2)cc1)c1ccc(OCC2CCN(CCCOCCCCNc3ccc4c(c3)C(=O)N(C3CCC(=O)NC3=O)C4=O)CC2)cc1` (stereo not drawn) [Example 16] displayed a DC50 of more than 10 µM.

The molecule `CC(C)(c1ccc(OCCCOCCCNc2ccc3c(c2)C(=O)N(C2CCC(=O)NC2=O)C3=O)cc1)c1ccc(OCc2ccnc(NS(C)(=O)=O)n2)cc1` (stereo not drawn) [Example 18] returned a DC50 of more than 10 µM.

For `CC(C)(c1ccc(OCCCOCCCOCCCNc2cccc3c2C(=O)N(C2CCC(=O)NC2=O)C3=O)cc1)c1ccc(OCc2ccnc(NS(C)(=O)=O)n2)cc1` (stereo not drawn) [Example 19, N-(4-((4-(2-(4-(3-(3-(3-((2-(2,6-dioxopiperidin-3-yl)-1,3-dioxoisoindolin-4-yl)amino)propoxy)propoxy)propoxy)phenyl)propan-2-yl)phenoxy)methyl)pyrimidin-2-yl)methanesulfonamide], half-maximal degradation (DC50) was put at 6.86 µM.
